Assay: healing test: topical 4-hydroxy-androstenedione cream applied to the breasts of patients with mastalgia
Format: in vivo, human
Excerpt: Treatments acting with 4-hydroxy-androstenedione for mastalgia syndrome are described, wherein instead of 4-hydroxy-androstenedione, other aromatase inhibitors may be used.
Findings: Tension-related pains in both breasts occurring 3 to 5 days before each menstruation, apparently bundled shooting into the breast nipples. Then slowly decreasing pains, symptoms and signs and tension states during the menstruation period until about the 10th day after onset of menstruation.
A cream treated with 0.5 wt. % of 4-hydroxy-androstenedione was used (0.5% of 4OH-androstenedione introduced into 100 ml of ash-based cream). 4 g were administered daily, and specifically 2 g applied externally to each breast and carefully massaged in.
Start of healing test about 3 weeks before the period.
Continuation of the healing test with daily administration of 4-OH-androstenedione cream 0.5% strength.
Findings: For years, severe swelling and tension feeling occurring in each case 3-5 days before menstruation with diffuse pain symptoms and signs radiating into the thorax, which is almost unbearable until the onset of menstruation. For years, unable to work 1-3 days per month due to these pains. Disappearance of symptoms and signs only on 8th-12th day after onset of menstruation.
Healing test using 1% strength 4-OH-androstenedione cream (1 g of 4-OH-androstenedione introduced into 100 ml of ash-based cream).
Dose 1×daily 4 g, in each case 2 g applied to each breast.
The start of the healing test took place about 2 weeks before onset of menstruation.
Continuation of the healing test using 0.5% strength 4-OH-androstenedione cream (0.5 g of 4-OH-androstenedione introduced into 100 ml of ash-based cream) 4 g daily, that is 2 g applied to each breast.

[1] = Example 2, 1% strength cream, 1x daily 4 g, subsequent period 2
[2] = Example 2, continuation with 0.5% strength cream, 4 g daily, subsequent periods

SMILES: C[C@]12CCC(=O)C(O)=C1CC[C@@H]1[C@@H]2CC[C@]2(C)C(=O)CC[C@@H]12 [4-hydroxy-androstenedione, 4-hydroxyandrostenedione]
- tension pain (Example 1, person, 0.5 wt. % cream, 4 g daily (2 g each breast), first subsequent period): Significantly reduced tension pain
- pain (Example 1, 0.5% strength cream daily, second subsequent period): complete freedom from pain
- course of symptoms and signs (Example 1, 0.5 wt. % cream, 4 g daily, first subsequent period): symptoms and signs subsided more rapidly
- time to pain-free after start of menstruation (Example 1, 0.5 wt. % cream, 4 g daily, first subsequent period (before treatment until about the 10th day)): 5 days
- course of mastalgia (Example 2, person, 1% strength cream, 1x daily 4 g, subsequent period 1): somewhat blander course
- inability to work (Example 2, 1% strength cream, 1x daily 4 g, subsequent period 1 (before treatment 1-3 days per month)): 1 days
- inability to work [1]: no inability to work
- pain symptoms and signs [1]: considerably lower pain symptoms and signs
- swelling and tension feeling [1]: Significantly lower swelling and tension feeling
- mastopathy-related inability to work [2]: no mastopathy-related inability to work
- pain [2]: practically pain-free
- swelling and tension feelings [2]: Hardly any swelling and tension feelings

Source: patent publication US20040018991A1, “Topical treatment for mastalgia” (priority 2000, published 2004)
